Experimental data taken from PMC10075506, “Synthesis and biological evaluation of flavonoid-based IP6K2 inhibitors” (Journal of Enzyme Inhibition and Medicinal Chemistry, 2023).

Tests used:
human IP6K3 = biological target: T1, human IP6K3 (Homo sapiens, UniProt Q96PC2); assay: ADP-Glo kinase assay, IP6K3 (Liao et al.'s conditions); type: biochemical; conditions: for IC50: IP6K3 120 nM, ATP 1 mM
T1 construct: made in house; host or cells: Sf9 insect cells (baculovirus, pFASTBAC1)
Description: (§1) Inhibition activity of the synthesised compounds against IP6K2 was assessed using ADP-Glo™ Kinase Assay (Promega). Kinase reaction mixtures were first shaking-incubated with individual drugs (diluted in DMSO) for pre-incubation at RT for 15 min, and then ATP was added (final 10 µM) to initiate the reaction. 20 ng of recombinant human IP6K2 protein was used per 15 µL of IP6K2 reaction mixture (50 mM Tris-HCl, pH 6.8, 10 mM MgCl2, 2.5 mM DTT, 0.02% Triton X-100, 10 µM IP6). […] Each detection set was prepared on 96-well (25 µL kinase reaction) as duplicates. Resulting enzyme activity was calculated as following; Activity (%) = ([ADPexperimental]/[ADPDMSO])×100. For IC50 estimation of compounds, kinase assay was prepared on 384-well plates (20 ng of recombinant human IP6K2 protein was used per 5 µL kinase reaction mixture) as duplicates. The final concentrations for IP6K2, IP6, and ATP were 80 nM, 10 μM, and 10 μM, respectively. […] IP6K1 and IP6K3 assays were performed by Liao et al.’s conditions.[25] The final concentrations for IP6K1, IP6, and ATP were 60 nM, 100 μM, and 1 mM, respectively. […] All statistical analyses including IC50 estimation was performed using Prism 7 or Prism 9 (Graphpad Software).
(§2) Full-length human IP6K1, IP6K2, or IP6K3 cDNA was subcloned into pFASTBAC1 plasmid (Gibco) with an N-terminal FLAG epitope sequence, and baculovirus was generated according to the manufacturer’s instructions. Sf9 insect cells were infected with baculovirus and incubated for 72 h. The cells were resuspended in lysis buffer [20 mM Tris–HCl (pH 7.9), 500 mM NaCl, 4 mM MgCl2, 0.4 mM EDTA, 2 mM DTT, 20% glycerol, 1 mM PMSF, and protease inhibitor cocktail (Roche)] and then disrupted with a Dounce homogeniser (pestle A, 3 series of 10 strokes with 10 min interval).

[1] = test system: IP7 synthesis in human colorectal cell line (HCT116); assay: cellular IP7 synthesis in HCT116, HPLC of [3H]inositol-labelled inositol phosphates; type: cell-based; conditions: HCT116, compound 10 μM for 6 h
Description: For HPLC analysis, 2 × 10^5 cells/60 mm dish of HCT116 were treated with 60 μCi [^3H] myo-inositol (NET1177001MC, PerkinElmer). After 3 days, soluble inositol polyphosphates from HCT116 (human colorectal cancer cell line) were extracted and analysed as previously described.[39] Intracellular inositol phosphates were extracted with acid extraction buffer (1M HClO4, 3 mM EDTA, and 0.1 mg/mL IP6), and neutralised with neutralisation buffer (1M K2CO3 and 3 mM EDTA). The lysates were centrifuged for 10 min, and the soluble fraction was resolved by HPLC as described earlier.[39] The lipid pellet was lysed with 0.1% Triton X-100 in NaOH overnight. […] Quantity of inositol phosphates was presented as total counts/min (CPM) normalised by total lipid contents.

recombinant human IP6K2 = biological target: T2, recombinant human IP6K2 (Homo sapiens, UniProt Q9UHH9); assay: ADP-Glo kinase assay, IP6K2; type: biochemical
T2 construct: made in house; host or cells: Sf9 insect cells (baculovirus, pFASTBAC1)
T2 sequence (Q9UHH9 1-426): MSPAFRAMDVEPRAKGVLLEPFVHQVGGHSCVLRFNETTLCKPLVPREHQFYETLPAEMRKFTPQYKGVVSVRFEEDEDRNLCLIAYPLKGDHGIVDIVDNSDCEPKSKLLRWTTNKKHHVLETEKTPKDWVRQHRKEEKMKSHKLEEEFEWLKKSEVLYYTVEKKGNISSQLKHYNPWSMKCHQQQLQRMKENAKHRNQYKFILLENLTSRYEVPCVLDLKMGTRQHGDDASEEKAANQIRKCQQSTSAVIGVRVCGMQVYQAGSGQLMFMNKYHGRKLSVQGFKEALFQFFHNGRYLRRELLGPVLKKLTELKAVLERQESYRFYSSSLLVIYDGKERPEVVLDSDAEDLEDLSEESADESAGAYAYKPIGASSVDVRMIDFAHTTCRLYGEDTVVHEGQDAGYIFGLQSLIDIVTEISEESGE
Description: as §1, §2

in vitro = conditions: PAMPA
Excerpt: Supporting Information Table 1.
artificial membrane permeability assay (PAMPA) as described previously (reference). The apparent permeability
(ranitidine, nadolol, hydrochlorothiazide).
Data are mean ± S.D. (n=3).
Reference: Oh, M.H., Lee, H.J., Jo, S.H., et al. Development of Cassette PAMPA for Permeability Screening. Biol Pharm

human IP6K1 = biological target: T3, human IP6K1 (Homo sapiens, UniProt Q92551); assay: ADP-Glo kinase assay, IP6K1 (Liao et al.'s conditions); type: biochemical; conditions: for IC50: IP6K1 60 nM, ATP 1 mM
T3 construct: made in house; host or cells: Sf9 insect cells (baculovirus, pFASTBAC1)
Description: as §1, §2

hIP6K2 = conditions: read-out: IC50 value of quercetin (IP6K2), reported; different IP6K2 enzyme concentration and reaction temperature; cited from earlier work
[2] = final concentration of ATP and IP6 adjusted to 10 μM

T3 sequence (Q92551 whole entry): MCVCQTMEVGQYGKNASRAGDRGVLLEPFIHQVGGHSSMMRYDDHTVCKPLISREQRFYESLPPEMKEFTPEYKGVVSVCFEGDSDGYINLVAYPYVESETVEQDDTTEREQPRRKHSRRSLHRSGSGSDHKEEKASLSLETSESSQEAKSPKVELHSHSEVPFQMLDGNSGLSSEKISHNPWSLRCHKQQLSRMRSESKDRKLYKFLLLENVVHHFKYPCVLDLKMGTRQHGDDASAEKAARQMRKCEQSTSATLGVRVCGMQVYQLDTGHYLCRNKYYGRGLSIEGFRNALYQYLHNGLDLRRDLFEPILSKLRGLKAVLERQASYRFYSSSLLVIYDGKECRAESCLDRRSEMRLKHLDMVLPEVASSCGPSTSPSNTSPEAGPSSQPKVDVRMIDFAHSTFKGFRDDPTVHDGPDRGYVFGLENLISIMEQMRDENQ
T1 sequence (Q96PC2 whole entry): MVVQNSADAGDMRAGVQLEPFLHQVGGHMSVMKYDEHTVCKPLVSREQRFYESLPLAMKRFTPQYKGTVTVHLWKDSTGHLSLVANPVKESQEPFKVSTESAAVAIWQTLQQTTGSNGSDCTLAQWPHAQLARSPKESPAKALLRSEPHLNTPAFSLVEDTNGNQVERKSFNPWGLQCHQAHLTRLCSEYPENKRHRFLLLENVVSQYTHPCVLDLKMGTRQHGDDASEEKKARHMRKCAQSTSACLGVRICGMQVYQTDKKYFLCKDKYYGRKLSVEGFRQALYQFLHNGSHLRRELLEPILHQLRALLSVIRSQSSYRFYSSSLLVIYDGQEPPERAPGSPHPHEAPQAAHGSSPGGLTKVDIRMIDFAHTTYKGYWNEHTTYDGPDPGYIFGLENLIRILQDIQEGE

Structure (SMILES) | IC50 (human IP6K3; IP6 100 µM) [µM] | IP6K3 /IP6K2 (IC50 ratio) (human IP6K3; IP6K3 at ATP 1 mM, IP6 100 µM, IP6K2 at ATP 10 µM, IP6 10 µM) | IC50 ratio of IP6K3/IP6K2 (human IP6K3; [2]) [fold] | cellular IP7 levels [1] | IC50 (recombinant human IP6K2) [µM] | fold more potent IP6K2 inhibition than quercetin (recombinant human IP6K2; IC50 compared with quercetin) [fold] | fold more potent than compound 20r (IP6K2) (recombinant human IP6K2; meta -COOH versus para -COOH) | Papp (in vitro) [×10⁻⁶ cm/s] | Permeability class (in vitro) | IC50 (human IP6K1; IP6 100 µM) [µM] | IP6K1 /IP6K2 (IC50 ratio) (human IP6K1; IP6K1 at ATP 1 mM, IP6 100 µM, IP6K2 at ATP 10 µM, IP6 10 µM) | IC50 ratio of IP6K1/IP6K2 (human IP6K1; [2]) [fold] | IC50 (hIP6K2) [µM]
O=C(O)c1cccc(-c2oc3cc(O)c(O)cc3c(=O)c2O)c1 [Compound 20s, 3–(3,6,7-Trihydroxy-4-oxo-4H-chromen-2-yl)benzoic acid] | 3.56 | 6.47 | 2.32 | failed to reduce cellular IP7 levels | 0.55 ± 0.001 | 5 | approximately 7 fold | < 0.18 | Low | 2.87 | 5.22 | 4.65 | –
O=c1c(O)c(-c2ccc(O)c(O)c2)oc2cc(O)cc(O)c12 [Quercetin, 3,3′,4′,5,7-pentahydroxylflavone] | 4.35 | – | – | – | – | – | – | 0.54 | Low | 1.1 | – | – | […]
